Assay results from paper PMC12715762, “Discovery of VU6052254: A Novel, Potent M1 Positive Allosteric Modulator” (ACS Chemical Neuroscience, 2025).
Numbering of substitutions follows the chain as printed. In brackets after ≈: the same amount, converted by molar mass.

Legend:
mM1 = molecular target: T1, mM1 (Mus musculus, UniProt P12657); assay: M1 PAM calcium mobilization assay (mouse); format: cell-based; conditions: mouse M1, n = 1
T1 construct: expressed in transfected cells
T1 sequence (P12657 1-460): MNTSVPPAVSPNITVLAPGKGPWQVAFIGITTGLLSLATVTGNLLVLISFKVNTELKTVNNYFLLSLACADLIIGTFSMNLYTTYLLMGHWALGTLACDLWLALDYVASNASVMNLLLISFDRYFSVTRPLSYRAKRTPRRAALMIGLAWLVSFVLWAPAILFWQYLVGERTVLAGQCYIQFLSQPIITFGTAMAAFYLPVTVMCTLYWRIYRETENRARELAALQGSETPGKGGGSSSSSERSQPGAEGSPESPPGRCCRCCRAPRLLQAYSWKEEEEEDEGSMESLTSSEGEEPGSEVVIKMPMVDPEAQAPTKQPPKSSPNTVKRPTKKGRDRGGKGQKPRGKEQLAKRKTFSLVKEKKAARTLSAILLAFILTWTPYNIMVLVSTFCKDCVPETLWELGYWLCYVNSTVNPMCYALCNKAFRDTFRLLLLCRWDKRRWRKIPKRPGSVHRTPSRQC

[1] = predicted hepatic clearance, hepatic microsomes (human); format: in vitro ADME; conditions: human (h)
Procedure: (§1) After a 5 min preincubation, the reaction was initiated by the addition of NADPH (1 mM). At selected time intervals (0, 3, 7, 15, 25, and 45 min), aliquots were taken and subsequently placed into a 96-well plate containing cold acetonitrile with internal standard (50 ng/mL carbamazepine). Plates were then centrifuged at 3000 rcf (4 °C) for 10 min, and the supernatant was transferred to a separate 96-well plate and diluted 1:1 with water for LC/MS/MS analysis. The in vitro half-life ( 1/2, min, Eq. 1), intrinsic clearance (CLint, mL/min/kg, Eq. 2), and subsequent predicted hepatic clearance (CLhep, mL/min/kg, Eq. 3) was determined employing the […]
(§2) where k represents the slope from linear regression analysis of the natural log percent remaining of a test compound as a function of incubation time […]
(§3) (2) CLint = in vitroT x mg microsomes x gram liver x kg body wt ascale-up factors: of 20 (human) or 45 (rat) […]
(§4) where Qh (hepatic blood flow, mL/min/kg) is 21 (human) or 70 (rat).
(§5) LC/MS/MS Bioanalysis of Samples from Plasma Protein Binding and Intrinsic Clearance […]
(§6) Samples were analyzed on a Thermo Electron TSQ Quantum Ultra triple quad mass spectrometer (San Jose, CA) via electrospray ionization (ESI) with two Themo Electron Accella pumps (San Jose, CA), and a Leap Technologies CTC PAL autosampler (Carrboro, NC). […]

[2] = predicted hepatic clearance (cyno); format: in vitro ADME; conditions: cyno (c)
Procedure: as §1, §2, §3, §4, §5, §6

[3] = solubility in simulated intestinal fluid (FaSSIF); format: physicochemical
[4] = solubility in simulated gastric fluid (FaSSGF); format: physicochemical; conditions: fassgf or other biorelevant
rat M1 = molecular target: T2, rat M1 (Rattus norvegicus, UniProt P08482); assay: M1 agonist calcium mobilization assay (rat); format: cell-based
T2 construct: expressed in transfected cells
T2 sequence (P08482 1-460): T1 sequence (P12657 1-460) with P309S

CYP 2C19 = CYP 2C19 (Homo sapiens, UniProt P33261); assay: CYP450 inhibition; format: in vitro ADME
Adenosine A2A = Adenosine A2A (Homo sapiens, UniProt P29274); assay: Eurofins radioligand binding
[5] = tested on: GABAA, Flunitrazepam, Central; assay: Eurofins radioligand binding; conditions: Rat
Histamine H2 = Histamine H2 (Homo sapiens, UniProt P25021); assay: Eurofins radioligand binding
Muscarinic M3 = Muscarinic M3 (Homo sapiens, UniProt P20309); assay: Eurofins radioligand binding
Chain of Muscarinic M3 (P20309 whole entry): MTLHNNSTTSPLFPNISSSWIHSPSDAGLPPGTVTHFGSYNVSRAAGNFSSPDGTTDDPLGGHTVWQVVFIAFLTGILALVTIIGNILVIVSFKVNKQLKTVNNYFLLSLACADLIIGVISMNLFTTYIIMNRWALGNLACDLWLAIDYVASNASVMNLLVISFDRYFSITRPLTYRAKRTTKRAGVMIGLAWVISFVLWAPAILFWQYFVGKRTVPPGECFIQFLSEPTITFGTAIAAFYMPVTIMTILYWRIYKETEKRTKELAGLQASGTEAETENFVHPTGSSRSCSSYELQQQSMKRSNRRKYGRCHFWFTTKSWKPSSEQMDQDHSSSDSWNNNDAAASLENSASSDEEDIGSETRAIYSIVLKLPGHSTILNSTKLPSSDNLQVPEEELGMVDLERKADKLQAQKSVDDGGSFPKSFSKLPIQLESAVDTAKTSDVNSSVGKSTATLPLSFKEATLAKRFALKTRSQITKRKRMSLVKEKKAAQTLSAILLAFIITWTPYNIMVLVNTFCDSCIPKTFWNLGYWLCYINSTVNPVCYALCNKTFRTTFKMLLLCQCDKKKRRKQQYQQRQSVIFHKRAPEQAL

Chain of CYP 2C19 (P33261 whole entry): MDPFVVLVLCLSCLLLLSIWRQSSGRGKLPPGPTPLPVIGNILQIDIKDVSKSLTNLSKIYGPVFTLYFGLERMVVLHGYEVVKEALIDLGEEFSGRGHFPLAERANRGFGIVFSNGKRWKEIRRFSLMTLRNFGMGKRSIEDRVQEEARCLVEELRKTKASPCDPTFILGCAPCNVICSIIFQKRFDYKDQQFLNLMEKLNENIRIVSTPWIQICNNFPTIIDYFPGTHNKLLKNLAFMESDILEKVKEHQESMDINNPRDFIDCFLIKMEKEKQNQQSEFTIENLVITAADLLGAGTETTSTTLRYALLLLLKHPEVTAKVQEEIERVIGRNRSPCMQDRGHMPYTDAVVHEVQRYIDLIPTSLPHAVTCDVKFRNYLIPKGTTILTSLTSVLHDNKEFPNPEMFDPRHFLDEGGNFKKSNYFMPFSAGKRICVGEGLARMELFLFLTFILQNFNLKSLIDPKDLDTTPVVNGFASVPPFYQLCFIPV
Chain of Histamine H2 (P25021 whole entry): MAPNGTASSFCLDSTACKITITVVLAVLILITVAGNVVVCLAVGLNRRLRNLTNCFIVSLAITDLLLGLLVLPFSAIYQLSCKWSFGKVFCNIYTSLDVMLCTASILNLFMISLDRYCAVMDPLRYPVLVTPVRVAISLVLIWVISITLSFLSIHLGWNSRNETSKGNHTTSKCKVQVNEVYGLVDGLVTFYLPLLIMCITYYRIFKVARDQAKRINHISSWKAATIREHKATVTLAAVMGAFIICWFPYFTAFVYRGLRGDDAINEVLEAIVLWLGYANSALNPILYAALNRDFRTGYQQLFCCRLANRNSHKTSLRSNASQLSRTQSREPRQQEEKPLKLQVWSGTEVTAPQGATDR
Chain of Adenosine A2A (P29274 whole entry): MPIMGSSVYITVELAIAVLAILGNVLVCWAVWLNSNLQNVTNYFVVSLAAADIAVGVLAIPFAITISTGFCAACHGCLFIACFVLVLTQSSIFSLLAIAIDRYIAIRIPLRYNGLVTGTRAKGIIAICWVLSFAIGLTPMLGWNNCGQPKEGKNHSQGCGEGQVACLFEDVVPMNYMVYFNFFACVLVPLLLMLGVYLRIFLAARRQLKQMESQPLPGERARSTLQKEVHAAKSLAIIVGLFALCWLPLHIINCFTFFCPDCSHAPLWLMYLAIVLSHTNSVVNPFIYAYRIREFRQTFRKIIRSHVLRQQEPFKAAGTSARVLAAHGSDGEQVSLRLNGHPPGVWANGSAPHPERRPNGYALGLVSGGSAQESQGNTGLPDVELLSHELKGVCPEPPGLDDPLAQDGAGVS

Cn1cc2c(-c3cc(F)c(CN4Cc5ncccc5C4=O)c(F)c3)cccc2n1 [compound 1, reference compound]
EC50 (mM1): 728 nM | mM1 PAM, percentage in brackets (AChmax) (mM1): 56% | Predicted CLhep [1]: 1.3 mL/min/kg | Predicted CLhep [2]: 5.6 mL/min/kg | solubility [3]: 7 µg/mL (≈ 17.9 µM) | solubility [4]: 36 µg/mL (≈ 92.2 µM)

Cn1cc2c(-c3cc(F)c(CN4Cc5ncccc5C4=O)c(F)c3)ccc(C(C)(C)O)c2n1 [compound 7]
rM1 Agonist AChmax (%) (rat M1; rat M1, % ACh max, n = 5): 17% | EC50 (rat M1; rat M1, n = 5, read-out: rM1 Agonist EC50): > 10000 nM | EC50 (mM1): 80 nM | mM1 PAM, percentage in brackets (AChmax) (mM1): 63% | Predicted CLhep [1]: 12.8 mL/min/kg | Predicted CLhep [2]: 17.7 mL/min/kg | IC50 (CYP 2C19): > 30000 nM | solubility [3]: 11 µg/mL (≈ 24.5 µM) | solubility [4]: 24.8 µg/mL (≈ 55.3 µM) | inhibition at 10 µM (Adenosine A2A): 3% | % Inhibition at 10 µM [5]: 4% | inhibition at 10 µM (Histamine H2): 2% | inhibition at 10 µM (Muscarinic M3): 7%
